Results as given in US20180353501A1 (Arvinas, Inc., priority 2017, published 2018).

Tests used:
p38δ [1] = target: T1, p38δ (Homo sapiens, UniProt O15264); assay: Western blot survey of p38 isoform degradation in MDA-MB-231 cells (incl. proteasome rescue, CHX chase, washout); assay type: cell-based; conditions: MDA-MB-231 cells, western blot
T1 construct: endogenous in cells; host or cells: MDA-MB-231 (intact cells for degradation; cleared cell lysate for CETSA)
T1 sequence (O15264 1-365): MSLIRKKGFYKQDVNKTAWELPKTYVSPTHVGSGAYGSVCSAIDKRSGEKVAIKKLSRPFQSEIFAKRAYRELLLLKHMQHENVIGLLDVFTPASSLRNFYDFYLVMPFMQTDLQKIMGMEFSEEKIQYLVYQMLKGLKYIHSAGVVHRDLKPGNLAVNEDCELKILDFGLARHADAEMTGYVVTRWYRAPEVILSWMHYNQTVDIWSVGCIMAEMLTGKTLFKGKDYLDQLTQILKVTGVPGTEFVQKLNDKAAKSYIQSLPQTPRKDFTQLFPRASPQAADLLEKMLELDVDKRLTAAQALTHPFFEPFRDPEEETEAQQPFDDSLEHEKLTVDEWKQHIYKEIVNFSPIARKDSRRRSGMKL
Description: (§1) FIGS. 11A and 11B. Survey of p38 isoform degradation with foretinib-based VHL PROTACs (related to FIGS. 9A-9C and Table 13). (A) Western blots of amide series PROTACs tested in increasing concentrations (0.025, 0.100, 0.250, 1.0, 5.0 μM) on MDA-MB-231 cells, in duplicate. (B) Same as in (A) but with the phenyl series PROTACs. Summary table of the DC50 (concentration at which half-maximal degradation is achieved) and Dmax (maximum percentage of degradation achieved) is reported, per exemplary PROTAC, in Table 13.
(§2) FIGS. 13A, 13B, 13C, and 13D. Exemplary compounds 50 and 46 degrade p38 isoforms in a manner that is rapid, sustained, and proteasome-dependent. (A) MDA-MB-231 cells were either pre-treated or not with the proteasome inhibitor epoxomicin (1 μM) or the neddylation inhibitor MLN4924 (1 μM) for 30 minutes and subsequently treated with either vehicle (DMSO), exemplary compound 50 (250 nM), or exemplary compound 46 (250 nM) for 6 hours. (B) Quantitative real-time PCR was performed after 24 hours of treatment with either vehicle (DMSO), exemplary compound 50 (250 nM), or exemplary compound 46 (250 nM) in MDAMB-231 cells. The dotted line represents DMSO-treated conditions standardized to a value of 1.0 and mRNA abundance (per treatment group) is represented as a foldchange relative to that value. Data is based on biological duplicates and is normalized to beta-tubulin. (C) Cycloheximide (CHX) chase assay. MDA-MB-231 cells were pre-treated with 100 μg/mL CHX for 1 hour prior to treating for the indicated times with either vehicle (DMSO), exemplary compound 50 (250 nM), or exemplary compound 46 (250 nM). Tubulin-normalized p38α and p38δ abundance values are reported beneath individual lanes. (D) MDA-MB231 cells were treated with either vehicle (DMSO), exemplary compound 50 (250 nM), or exemplary compound 46 (250 nM) for 24 hours before re-plating onto new plastic in fresh medium for an additional 24, 48, or 72 hours (“washout” conditions).
(§3) Cell culture. MDA-MB-231 and HeLa cells were obtained from the American Type Culture Collection (ATCC), cultured in RPMI-1640 (1×) and DMEM (1×) medium, respectively, containing 10% fetal bovine serum (FBS) and 1% penicillin-streptomycin and grown in a humidified incubator at 37° C. and 5% CO2.
(§4) Lysates from MDA-MB-231 cells were washed once with ice cold PBS (1×), followed by lysis in buffer containing 25 mM Tris [pH 7.5], 0.25% sodium deoxycholate, 1% Triton X-100, supplemented with 1× protease inhibitor cocktail (Roche) and phosphatase inhibitors (10 mM NaF, 1 mM Na3VO4, and 20 mM β-glycerophosphate), unless otherwise noted. Lysates were spun at 14,000×g for 10 minutes at 4° C. and supernatant was evaluated for protein content using a Pierce BCA Protein Assay (Thermo Fisher Scientific). 25 to 50 μg of protein was loaded onto 10% SDS-PAGE gels or 4-20% Criterion TGX precast gradient gels (Bio-Rad), transferred to nitrocellulose membranes, and probed with the specified antibodies overnight at 4° C. in 1×TBS-Tween (Tris buffered saline plus 0.02% Tween 20) containing 5% non-fat milk. Immunoblots were visualized using a Bio-Rad ChemiDoc imaging instrument and subsequently processed and quantified using the accompanying Bio-Rad ImageLab software.
(§5) MDA-MB-231 cells were plated at 3×10^5 cells per well in a 6-well dish, allowed to adhere overnight, and switched to serum-free RPMI-1640 (1×) media for 16 hours. Cells were then pre-treated with cycloheximide (Sigma) at 100 μg mL^−1 for 1 hour prior to adding either vehicle (DMSO) or PROTAC (250 nM). At the indicated timepoints, cells were immediately placed on ice, rinsed with 1×PBS, lysed, and boiled.
(§6) MDA-MB-231 cells were plated at 1.5×10^5 cells per well in a 6-well dish and allowed to adhere overnight. On the following day, all cells were treated with either vehicle (DMSO) or PROTAC (250 nM). […]

p38α [2] = target: T2, p38α (Homo sapiens, UniProt Q16539); assay: as above; assay type: cell-based; conditions: MDA-MB-231 cells, western blot; for Dmax: read-out: p38α Dmax (maximum percentage of degradation achieved)
T2 construct: selectively degrades p38α, whereas exemplary PROTAC 46 (10-atom linker, phenyl attachment) selectively degrades p38δ in MDA-MB-231 cells; endogenous in cells; host or cells: MDA-MB-231
T2 sequence (Q16539 whole entry): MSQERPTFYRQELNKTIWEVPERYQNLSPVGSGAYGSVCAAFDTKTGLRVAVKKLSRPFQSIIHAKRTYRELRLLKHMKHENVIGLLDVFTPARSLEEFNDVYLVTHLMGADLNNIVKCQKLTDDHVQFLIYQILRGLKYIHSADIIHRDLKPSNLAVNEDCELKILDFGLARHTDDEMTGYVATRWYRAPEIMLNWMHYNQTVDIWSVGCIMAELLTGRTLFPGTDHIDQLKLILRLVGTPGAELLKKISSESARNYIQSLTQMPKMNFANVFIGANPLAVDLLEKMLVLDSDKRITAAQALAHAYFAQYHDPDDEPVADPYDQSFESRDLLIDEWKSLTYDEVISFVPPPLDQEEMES
Description: as §1, §2, §3, §4, §5, §6

p38δ [3] = target: T1, p38δ; assay: Cellular assay of target protein degradation (MDA-MB-231 cells, ELISA); assay type: cell-based; conditions: for DC50: read-out: p38δDC50/nM [MDA-MB-231]
Description: (§7) Protocol of the cellular assay of target protein degradation (MDA-MB-231 cells, ELISA).
(§8) For detection Cell Signaling PathScan Sandwich ELISA Catalog#12850 was used. MDA-MB-231 cells and […] were cultured in ATCC DMEM+ATCC FBS and plated 40,000/well 100 μl/well in RPMI P/S with 5% CSS Omega (bovine) serum into a 96 well plate. The cells were grown for a minimum of 3 days, dosed with compounds in 0.1% DMSO (diluted with 5% CSS) and incubated with aspiration for 4 hours. 100 μl of 1× Cell Signaling lysis buffer #9803 (36 mL dH2O+4 mL Cell Signaling lysis buffer) was added. The incubation was placed on cold room shaker for 10 minutes at speed 8-9.5 μl to 100 μL of Diluent was transferred to ELISA plate (0.15 μg/mL-0.075 μg/mL) and stored at 4° C. overnight on cold room shaker speed 5 (gentle swirl) and then shaken next morning at 37° C. for 30 minutes. The preparation was washed 4×200 μl with ELISA wash buffer and aspirated with eight-channel aspirator. 100 μl/well of target protein detection antibody was added after, which the preparation was covered and shaken at 37° C. for 1 hour. 100 μl TMB was added, and the mixture was shaken for 5 min while under observation. When TMB turned light blue, 100 μl of Stop solution was added, and the mixture was shaken and read at 450 nm. Also read at 562 nm for background subtraction.

p38α [4] = target: T2, p38α; assay: as above; assay type: cell-based
Description: as §7, §8

cMET = target: T3, cMET (Homo sapiens, UniProt P08581); assay: as above; assay type: cell-based
T3 construct: endogenous in cells; host or cells: MDA-MB-231
T3 sequence (P08581 25-1390): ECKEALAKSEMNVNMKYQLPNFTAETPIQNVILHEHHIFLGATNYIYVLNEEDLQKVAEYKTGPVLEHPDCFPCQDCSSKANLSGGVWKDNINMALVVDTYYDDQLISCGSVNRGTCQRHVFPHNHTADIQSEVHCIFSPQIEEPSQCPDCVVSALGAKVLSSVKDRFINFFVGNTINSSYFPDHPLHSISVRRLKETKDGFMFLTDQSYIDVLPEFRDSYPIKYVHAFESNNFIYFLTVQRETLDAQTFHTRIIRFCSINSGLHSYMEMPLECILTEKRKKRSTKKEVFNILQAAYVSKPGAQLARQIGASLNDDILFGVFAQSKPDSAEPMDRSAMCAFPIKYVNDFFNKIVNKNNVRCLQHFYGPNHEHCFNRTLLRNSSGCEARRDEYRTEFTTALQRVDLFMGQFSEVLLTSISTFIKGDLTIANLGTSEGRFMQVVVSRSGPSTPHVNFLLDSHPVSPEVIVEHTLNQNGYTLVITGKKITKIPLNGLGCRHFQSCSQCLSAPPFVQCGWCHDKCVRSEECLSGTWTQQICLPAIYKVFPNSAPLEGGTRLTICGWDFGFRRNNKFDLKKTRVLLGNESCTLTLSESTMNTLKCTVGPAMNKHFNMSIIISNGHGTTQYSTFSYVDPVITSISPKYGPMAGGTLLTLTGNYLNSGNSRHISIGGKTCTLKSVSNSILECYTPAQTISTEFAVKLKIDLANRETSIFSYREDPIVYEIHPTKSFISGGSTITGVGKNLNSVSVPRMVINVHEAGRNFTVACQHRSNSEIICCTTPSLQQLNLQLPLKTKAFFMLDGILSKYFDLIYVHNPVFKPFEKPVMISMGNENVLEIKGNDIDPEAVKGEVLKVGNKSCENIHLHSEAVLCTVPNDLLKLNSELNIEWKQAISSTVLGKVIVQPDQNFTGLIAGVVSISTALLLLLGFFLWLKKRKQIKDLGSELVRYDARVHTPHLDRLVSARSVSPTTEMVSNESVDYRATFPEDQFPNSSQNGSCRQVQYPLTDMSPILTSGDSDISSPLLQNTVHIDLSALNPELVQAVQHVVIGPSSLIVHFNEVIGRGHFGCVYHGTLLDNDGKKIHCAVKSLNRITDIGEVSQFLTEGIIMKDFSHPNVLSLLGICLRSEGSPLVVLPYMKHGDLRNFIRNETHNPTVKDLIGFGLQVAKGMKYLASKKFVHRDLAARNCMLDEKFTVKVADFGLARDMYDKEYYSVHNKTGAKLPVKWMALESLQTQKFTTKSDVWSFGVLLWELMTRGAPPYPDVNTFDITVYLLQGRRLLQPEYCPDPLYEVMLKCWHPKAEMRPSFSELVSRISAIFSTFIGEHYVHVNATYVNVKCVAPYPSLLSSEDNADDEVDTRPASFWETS
Description: as §7, §8

MAK = target: T4, MAK (Homo sapiens, UniProt P20794); assay: KINOMEscan in vitro kinase binding; conditions: screened at 1000 nM; lower number = stronger binding
T4 construct: purchased DiscoverRx Corporation (KINOMEscan platform, service)
T4 sequence (P20794 whole entry): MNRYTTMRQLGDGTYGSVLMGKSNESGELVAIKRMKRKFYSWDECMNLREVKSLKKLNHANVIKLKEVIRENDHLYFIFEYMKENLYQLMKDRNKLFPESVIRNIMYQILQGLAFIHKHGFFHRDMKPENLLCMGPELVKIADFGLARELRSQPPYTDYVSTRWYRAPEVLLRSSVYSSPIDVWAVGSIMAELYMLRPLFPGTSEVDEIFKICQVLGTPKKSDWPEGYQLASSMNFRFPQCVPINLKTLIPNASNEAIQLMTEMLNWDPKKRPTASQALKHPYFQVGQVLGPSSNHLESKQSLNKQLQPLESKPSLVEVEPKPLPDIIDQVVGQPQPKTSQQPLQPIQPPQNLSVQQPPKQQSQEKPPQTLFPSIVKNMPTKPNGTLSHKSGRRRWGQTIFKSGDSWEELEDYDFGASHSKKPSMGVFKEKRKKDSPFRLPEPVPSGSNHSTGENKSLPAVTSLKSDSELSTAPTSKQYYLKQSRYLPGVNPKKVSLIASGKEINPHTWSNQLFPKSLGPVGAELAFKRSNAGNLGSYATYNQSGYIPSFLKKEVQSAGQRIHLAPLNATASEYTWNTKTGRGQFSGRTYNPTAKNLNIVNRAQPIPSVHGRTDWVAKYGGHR
Description: In Vitro Kinase Binding Affinity Determination for Example 1 and Example 2.
PROTAC in vitro binding affinities (Kd) to c-Met was determined using the KINOMEscan™ platform (DiscoverRx Corporation). The compounds were solubilized in DMSO and sent to DiscoverRx Corporation as 10 μM stock solutions.
Example 1 and Example 2 were screened at a 1000 nM concentration, and the results of the binding interactions are reported in “% Ctrl”, where a lower number indicates stronger binding. % Ctrl=[(test compound signal−positive control signal)/(negative control signal−positive control signal)]×100, wherein the negative control was DMSO.

[5] = read-out: p38α DC50 (concentration at which half-maximal degradation is achieved)

SMILES	DC50 (p38δ [1])	Dmax (p38δ [1])	DC50 (p38α [2]; read-out: p38α DC50)	Dmax (p38α [2])	Dmax (p38δ [3])	DC50 (p38δ [3])	DC50 (p38α [4])	Dmax (p38α [4])	DC50 (p38α [2]; [5])	Dmax (cMET)	% Ctrl (MAK)
COc1cc2c(Oc3ccc(NC(=O)C4(C(=O)Nc5ccc(F)cc5)CC4)cc3F)ccnc2cc1OCCCOCCOCCCOc1cc(-c2scnc2C)ccc1CNC(=O)[C@@H]1C[C@@H](O)CN1C(=O)[C@H](C(C)C)N1Cc2ccccc2C1=O [Ex. 5]	4900 nM	52%	≥ 5000 nM	17%	–	–	–	–	–	–	–
COc1cc2c(Oc3ccc(NC(=O)C4(C(=O)Nc5ccc(F)cc5)CC4)cc3F)ccnc2cc1OCCCCOCCCCOc1cc(-c2scnc2C)ccc1CNC(=O)[C@@H]1C[C@@H](O)CN1C(=O)[C@H](C(C)C)N1Cc2ccccc2C1=O [Ex. 45]	> 5000 nM	44%	> 5000 nM	25%	43%	> 5000 nM	> 5000 nM	27%	–	–	–
COc1cc2c(Oc3ccc(NC(=O)C4(C(=O)Nc5ccc(F)cc5)CC4)cc3F)ccnc2cc1OCCCOCCCOCCCOc1cc(-c2scnc2C)ccc1CNC(=O)[C@@H]1C[C@@H](O)CN1C(=O)[C@H](C(C)C)N1Cc2ccccc2C1=O [Ex. 47, N-(3-fluoro-4-((7-(3-(3-(3-(2-(((2S,4R)-4-hydroxy-1-((S)-3-methyl-2-(1-oxoisoindolin-2-yl)butano-yl)pyrrolidine-2-carboxamido)methyl)-5-(4-methylthiazol-5-yl)phenoxy)propoxy)-propoxy)propoxy)-6-methoxyquinolin-4-yl)oxy)phenyl)-N-(4-fluorophenyl)cyclopropane-1,1-dicarboxamide]	> 5000 nM	33%	> 5000 nM	20%	23%	> 5000 nM	> 5000 nM	12%	–	–	–
COc1cc2c(Oc3ccc(NC(=O)C4(C(=O)Nc5ccc(F)cc5)CC4)cc3F)ccnc2cc1OCCCOCCOCCC(=O)N[C@H](C(=O)N1C[C@H](O)C[C@H]1C(=O)NCc1ccc(-c2scnc2C)cc1)C(C)(C)C [Ex. 48, N-(3-fluoro-4-((7-(3-(2-(3-(((S)-1-((2S,4R)-4-hydroxy-2-((4-(4-methylthiazol-5-yl)benzyl)carbamoyl)pyrrolidin-1-yl)-3,3-dimethyl-1-oxobutan-2-yl)amino)-3-oxopropoxy)ethoxy)-propoxy)-6-methoxyquinolin-4-yl)oxy)phenyl)-N-(4-fluorophenyl)cyclopropane-1,1-dicarboxa-mide]	91.7 nM	91%	–	99.4%	91%	91.7 nM	18.8 nM	99%	18.8 nM	44%	–
COc1cc2c(Oc3ccc(NC(=O)C4(C(=O)Nc5ccc(F)cc5)CC4)cc3F)ccnc2cc1OCCOCCOCCC(=O)N[C@H](C(=O)N1C[C@H](O)C[C@H]1C(=O)NCc1ccc(-c2scnc2C)cc1)C(C)(C)C [Ex. 49, N-(3-fluoro-4-((7-(2-(2-(3-(((S)-1-((2S,4R)-4-hydroxy-2-((4-(4-methylthiazol-5-yl)benzyl)carba-moyl)pyrrolidin-1-yl)-3,3-dimethyl-1-oxobutan-2-yl)amino)-3-oxopropoxy)ethoxy)ethoxy)-6-methoxyquinolin-4-yl)oxy)phenyl)-N-(4-fluorophenyl)cyclopropane-1,1-dicarboxamide]	51.4 nM	81%	–	91%	81%	51.4 nM	40.1 nM	91%	40.1 nM	49%	–
COc1cc2c(Oc3ccc(NC(=O)C4(C(=O)Nc5ccc(F)cc5)CC4)cc3F)ccnc2cc1OCCCN1CCOCC1 [Foretinib, foretinib, reference compound]	–	–	–	–	–	–	–	–	–	–	55 % Ctrl
